Assay results taken from ChEMBL document CHEMBL1201862, “PubChem BioAssay data set” (2004).
Several values for one entry are separate records, joined by “and”; a condition that tells them apart may be missing. Equal values may be shown once. Activity calls are given as the source filed them.

Assays:
[1] = non-specific 3'UTR reporter inhibition in Clone20-Shn3RL – cell-based, Renilla luciferase, cherry-picked, counter-screen for Shn3 inhibitor project, dose response (AID 624133); type: functional
[2] = reduction of Shn3 3'UTR-driven luciferase in osteoblasts – cell-based, Clone20 osteoblasts, firefly luciferase, cherry-picked, dose response (AID 624132); type: functional;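 further: firefly luciferase luminescence from reporter carrying the Shn3 3'UTR in osteoblasts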
[3] = loss of viability in HepG2 cells – cell-based, CellTiter-Glo, cherry-picked, cytotoxicity control for Shn3 inhibitor project, dose response (AID 624134); type: functional
[4] = Shn3 3'UTR reporter signal decrease – cell-based, Clone20 osteoblasts, firefly luciferase, cherry-pick, set 2, Schnurri-3 inhibitor project, dose response (AID 720490); type: functional;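 further: actives lower the luminescence signal as inhibitors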
[5] = EF1alpha-driven Renilla reporter with control 3'UTR suppression – Clone20-Shn3RL cells, dual-Glo, cherry-pick, set 2, counter-screen for Shn3 3'UTR targeting project, dose response (AID 720724); type: functional, cell-based; details: Dual-Go Shn3RL
[6] = HGIII-sPLA2 enzyme inhibition potency – biochemical, QFRET, IC50, dose response (AID 743457);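 further: green fluorescence rise as the enzyme cleaves BODIPY PC-A2 in liposomes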
[7] = tested on: Streptococcus sp. 'group A'; experiment: Streptococcus pyogenes SK(-)GAS viability under kanamycin – luminescence, BacTiterGlo, confirmation, counter-screen for streptokinase expression inhibitor project, dose response (AID 1900); type: functional, organism-based
Streptococcus = experiment: GAS UMAA2166 growth inhibition – luminescence, BacTiterGlo, counter-screen for streptokinase expression inhibitor project, dose response (AID 1915); type: functional, organism-based;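 further: potency for reduction of bacterial viability or growth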
[8] = target: 26S proteasome non-ATPase regulatory subunit 14 (Homo sapiens, UniProt O00487); experiment: inhibition of proteasome subunit RPN11 – biochemical, fluorescence polarization, uHTS hits, confirmation (AID 602368); type: functional
Caspase-6 = Caspase-6 (Homo sapiens, UniProt P55212); experiment: inhibition of CASP6 peptide cleavage – biochemical, VEID-R110 fluorescence, cherry-pick, dose response (AID 720632)
Prothrombin = Prothrombin (Bos taurus, UniProt P00735); experiment: thrombin protease inhibitors – biochemical, fluorescence polarization, uHTS hits, dose response (AID 602369); type: functional
[9] = target: 72 kDa type IV collagenase (Homo sapiens, UniProt P08253); experiment: Dose Response validation of uHTS RPN11 inhibitor hits using a MMP-2 Fluorescence assay.; type: functional
Kallikrein-7 = Kallikrein-7 (Homo sapiens, UniProt P49862); experiment: Fluorescence Intensity-based biochemical primary high throughput dose response assay to identify activators of kallikrein-7 (K7) zymogen.
[10] = activation of miR-122 Renilla sensor silencing – cell-based, Huh7 psiCHECK-miR122, Renilla luciferase, cherry-picked, dose response (AID 651956); type: functional;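 further: huh7 hepatoma cells stably carrying a psiCHECK-2 miR-122 sensor plasmid; renilla luciferase signal reporting endogenous miR-122 activity after 48 h compound exposure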
[11] = alpha-synuclein stem-loop luciferase translation blockers – H4 neuroglioma cells, luminescence, confirmation (AID 1988); type: functional, cell-based
[12] = luciferase reporter signal suppression in cells – H4 neuroglioma cells, luminescence, dose response (AID 1990); type: functional, cell-based
[13] = Luminescence Cell-Based Dose Response HTS to Identify Inhibitors of 5'UTR Stem-Loop Driven Prion Protein mRNA Translation in H4 Neuroglioblastoma Cells. [Related pubchem assays: 1827 (Project Summary), 1813 (Primary HTS)]; type: functional
[14] = general mammalian cell viability loss – inhibitor set, cherry-pick, set 2, cytotoxicity control for miR-122 modulator project, dose response (AID 720697); type: functional, cell-based
[15] = target: T1, Sentrin-specific protease 1 (Homo sapiens, UniProt Q9P0U3); experiment: SENP1 catalytic domain blockers, concentration series – biochemical, kinetic FRET, dose response (AID 651697); type: functional; details: read-out: IC50_Mean
Melanocortin receptor 4 = Melanocortin receptor 4 (Homo sapiens, UniProt P32245); type: functional, cell-based;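 further: Cell-based assay with luminescence read-out, confirmatory dose-response testing for agonist activity of biased ligands at MC4R; human U2OS cells with tagged receptor and beta-arrestin; potency of agonists that increase receptor coupling to beta-arrestin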
[16] = target: T1, Sentrin-specific protease 1; experiment: Dose response confirmation of small molecule inhibitors of the catalytic domain of the SUMO protease, SENP1 in a FRET assay.; type: functional; details: read-out: IC50_Mean
[17] = target: ADP-ribosylation factor GTPase-activating protein 1 (Rattus norvegicus, UniProt Q62848); experiment: Fluorescence polarization-based biochemical high throughput dose response screening assay to identify inhibitors of ADP-ribosylation factor GTPase activating protein 1 (ARFGAP1).; type: functional
Mu-type opioid receptor = Mu-type opioid receptor (Homo sapiens, UniProt P35372); type: functional, cell-based;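 further: U2OS cells with beta-arrestin recruitment to OPRM1 by beta-gal complementation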
[18] = target: FAD-linked sulfhydryl oxidase ALR (Homo sapiens, UniProt P55789); experiment: ALR-catalysed DTT oxidation blockers – biochemical, H2O2 detection, luminescence, cherry-pick, dose response (AID 493248)
[19] = target: 5-hydroxytryptamine receptor 2A (Mus musculus, UniProt P35363); type: functional, cell-based;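 further: CHO-K1 cells with tagged receptor and beta-arrestin; agonist potency measured as compound-induced activation of the receptor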
[20] = target: T2, Beta-2 adrenergic receptor (Homo sapiens, UniProt P07550); experiment: Dose response for HTS for Beta-2AR agonists via FAP method from Powderset1.; type: functional
[21] = target: T2, Beta-2 adrenergic receptor; experiment: ADRB2 activation measured by internalization – cell-based, FAP fluorogen, flow cytometry, cherry pick 1, dose response (AID 588763); type: functional
[22] = target: Oxysterols receptor LXR-beta (Homo sapiens, UniProt P55055); type: functional, cell-based;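 further: agonist activity at LXR measured by a cell-based luminescence readout across a dose range, run as a counterscreen for daf-12 agonists; HEK293 cells with Gal4-LXR fusion and GAL4-driven luciferase reporter; potency for activation of Gal4-LXR reporter so compounds are agonists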
[23] = Counterscreen for antagonists of the human trace amine associated receptor 1 (hTAAR1): Fluorescence-based cell-based high throughput dose response assay to identify nonselective Ga16 antagonists.; type: functional
[24] = Counterscreen for […] of the human trace amine associated receptor 1 (TAAR1): Fluorescence-based cell-based high throughput dose response assay to identify nonselective Ga16 agonists.; type: functional

T2 sequence (P07550 whole entry): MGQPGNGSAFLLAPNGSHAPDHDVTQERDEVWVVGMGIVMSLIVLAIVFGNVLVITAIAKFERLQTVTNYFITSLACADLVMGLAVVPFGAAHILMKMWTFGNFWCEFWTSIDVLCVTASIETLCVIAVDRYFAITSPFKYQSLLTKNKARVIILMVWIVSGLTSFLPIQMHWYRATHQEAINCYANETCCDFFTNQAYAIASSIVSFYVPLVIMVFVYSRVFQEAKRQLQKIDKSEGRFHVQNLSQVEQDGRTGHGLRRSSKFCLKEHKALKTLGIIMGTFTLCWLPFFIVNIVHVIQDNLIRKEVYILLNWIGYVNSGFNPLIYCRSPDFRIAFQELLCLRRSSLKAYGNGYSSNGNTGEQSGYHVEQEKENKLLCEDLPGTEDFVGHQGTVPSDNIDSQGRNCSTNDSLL
T1 sequence (Q9P0U3 whole entry, the tested form may be a part): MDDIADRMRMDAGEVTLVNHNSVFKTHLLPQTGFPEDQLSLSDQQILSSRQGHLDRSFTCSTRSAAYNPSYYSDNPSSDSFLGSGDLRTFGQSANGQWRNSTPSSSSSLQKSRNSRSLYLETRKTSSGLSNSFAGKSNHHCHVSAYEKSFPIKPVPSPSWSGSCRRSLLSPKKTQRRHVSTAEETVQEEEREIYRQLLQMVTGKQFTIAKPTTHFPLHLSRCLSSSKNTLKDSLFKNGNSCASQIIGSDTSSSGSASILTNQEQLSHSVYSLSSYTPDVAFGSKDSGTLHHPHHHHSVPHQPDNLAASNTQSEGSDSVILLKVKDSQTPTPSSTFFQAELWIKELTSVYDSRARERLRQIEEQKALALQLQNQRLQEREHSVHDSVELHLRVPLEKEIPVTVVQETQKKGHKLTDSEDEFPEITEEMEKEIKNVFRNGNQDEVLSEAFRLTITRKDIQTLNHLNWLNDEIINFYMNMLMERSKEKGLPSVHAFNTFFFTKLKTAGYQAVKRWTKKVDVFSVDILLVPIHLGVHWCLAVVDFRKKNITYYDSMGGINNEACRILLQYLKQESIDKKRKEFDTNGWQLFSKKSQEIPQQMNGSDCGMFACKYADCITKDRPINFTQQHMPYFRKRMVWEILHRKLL
Kallikrein-7, sequence (P49862 whole entry): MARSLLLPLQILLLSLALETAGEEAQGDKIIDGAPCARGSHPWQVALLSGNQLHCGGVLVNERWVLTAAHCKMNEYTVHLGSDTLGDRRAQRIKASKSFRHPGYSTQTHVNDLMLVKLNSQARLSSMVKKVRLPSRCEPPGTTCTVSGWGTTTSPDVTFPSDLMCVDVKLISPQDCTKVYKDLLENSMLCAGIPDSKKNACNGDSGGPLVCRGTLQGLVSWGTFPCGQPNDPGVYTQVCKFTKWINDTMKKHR
FAD-linked sulfhydryl oxidase ALR, sequence (P55789 whole entry): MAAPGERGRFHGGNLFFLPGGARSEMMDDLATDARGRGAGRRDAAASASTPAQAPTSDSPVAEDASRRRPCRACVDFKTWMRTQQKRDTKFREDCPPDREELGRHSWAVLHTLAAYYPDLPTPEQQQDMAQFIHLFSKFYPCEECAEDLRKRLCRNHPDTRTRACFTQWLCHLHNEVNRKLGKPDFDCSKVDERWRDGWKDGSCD
Oxysterols receptor LXR-beta, sequence (P55055 whole entry, the tested form may be a part): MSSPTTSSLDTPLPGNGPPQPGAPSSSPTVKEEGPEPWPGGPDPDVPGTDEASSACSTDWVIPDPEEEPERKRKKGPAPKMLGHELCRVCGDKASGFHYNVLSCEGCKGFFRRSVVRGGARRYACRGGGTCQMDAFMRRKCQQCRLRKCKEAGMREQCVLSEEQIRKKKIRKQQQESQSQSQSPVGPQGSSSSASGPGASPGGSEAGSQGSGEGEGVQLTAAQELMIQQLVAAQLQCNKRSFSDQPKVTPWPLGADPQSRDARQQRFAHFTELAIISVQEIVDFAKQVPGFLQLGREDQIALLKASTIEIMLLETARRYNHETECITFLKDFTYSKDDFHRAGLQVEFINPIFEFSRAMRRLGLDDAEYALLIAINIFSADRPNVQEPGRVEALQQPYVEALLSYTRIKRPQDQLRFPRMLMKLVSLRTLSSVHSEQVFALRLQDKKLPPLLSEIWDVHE
ADP-ribosylation factor GTPase-activating protein 1, sequence (Q62848 whole entry): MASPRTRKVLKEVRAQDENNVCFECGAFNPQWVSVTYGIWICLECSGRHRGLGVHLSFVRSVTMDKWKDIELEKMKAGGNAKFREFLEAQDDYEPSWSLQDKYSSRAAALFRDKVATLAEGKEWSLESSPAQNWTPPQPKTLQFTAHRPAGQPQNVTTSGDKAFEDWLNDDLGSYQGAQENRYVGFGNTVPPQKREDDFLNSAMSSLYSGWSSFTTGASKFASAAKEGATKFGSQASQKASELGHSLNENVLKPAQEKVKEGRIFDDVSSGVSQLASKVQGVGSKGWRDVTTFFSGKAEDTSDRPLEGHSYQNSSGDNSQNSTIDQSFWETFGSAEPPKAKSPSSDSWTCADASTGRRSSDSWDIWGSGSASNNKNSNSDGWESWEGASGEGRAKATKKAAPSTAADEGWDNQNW
72 kDa type IV collagenase, sequence (P08253 whole entry): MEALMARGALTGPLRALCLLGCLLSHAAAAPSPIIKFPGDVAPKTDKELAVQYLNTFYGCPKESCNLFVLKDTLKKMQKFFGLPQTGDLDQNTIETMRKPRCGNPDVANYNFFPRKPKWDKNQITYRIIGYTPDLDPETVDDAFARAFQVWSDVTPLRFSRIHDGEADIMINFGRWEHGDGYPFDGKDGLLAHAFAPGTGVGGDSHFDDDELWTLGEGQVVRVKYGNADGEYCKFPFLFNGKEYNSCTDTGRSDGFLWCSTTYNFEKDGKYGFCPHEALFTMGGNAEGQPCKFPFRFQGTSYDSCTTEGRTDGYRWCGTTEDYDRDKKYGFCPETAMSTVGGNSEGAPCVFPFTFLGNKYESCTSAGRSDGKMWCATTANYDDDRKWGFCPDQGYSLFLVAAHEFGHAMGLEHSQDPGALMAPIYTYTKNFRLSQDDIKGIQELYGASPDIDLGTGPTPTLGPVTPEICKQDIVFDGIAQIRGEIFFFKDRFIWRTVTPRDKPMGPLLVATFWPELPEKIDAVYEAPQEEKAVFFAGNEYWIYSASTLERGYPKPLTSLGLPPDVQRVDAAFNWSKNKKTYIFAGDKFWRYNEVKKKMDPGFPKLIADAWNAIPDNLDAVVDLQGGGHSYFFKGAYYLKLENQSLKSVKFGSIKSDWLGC
Caspase-6, sequence (P55212 24-179 limits assumed): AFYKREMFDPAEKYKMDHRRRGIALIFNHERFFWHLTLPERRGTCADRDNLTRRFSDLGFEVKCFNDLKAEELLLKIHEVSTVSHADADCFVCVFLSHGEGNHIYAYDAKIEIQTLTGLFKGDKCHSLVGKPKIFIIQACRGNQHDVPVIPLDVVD
Caspase-6, sequence (P55212 194-293 limits assumed): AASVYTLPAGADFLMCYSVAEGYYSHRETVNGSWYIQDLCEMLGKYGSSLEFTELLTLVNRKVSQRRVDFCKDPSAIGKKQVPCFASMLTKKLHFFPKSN
26S proteasome non-ATPase regulatory subunit 14, sequence (O00487 whole entry): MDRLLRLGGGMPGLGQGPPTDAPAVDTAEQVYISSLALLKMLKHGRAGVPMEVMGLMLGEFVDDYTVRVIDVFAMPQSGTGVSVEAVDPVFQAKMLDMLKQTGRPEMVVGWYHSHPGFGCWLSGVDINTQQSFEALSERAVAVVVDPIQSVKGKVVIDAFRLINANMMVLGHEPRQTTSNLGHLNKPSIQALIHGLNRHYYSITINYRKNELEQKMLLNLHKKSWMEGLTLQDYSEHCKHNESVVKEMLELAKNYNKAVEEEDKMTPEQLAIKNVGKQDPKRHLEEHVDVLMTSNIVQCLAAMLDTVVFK
Mu-type opioid receptor, sequence (P35372 whole entry): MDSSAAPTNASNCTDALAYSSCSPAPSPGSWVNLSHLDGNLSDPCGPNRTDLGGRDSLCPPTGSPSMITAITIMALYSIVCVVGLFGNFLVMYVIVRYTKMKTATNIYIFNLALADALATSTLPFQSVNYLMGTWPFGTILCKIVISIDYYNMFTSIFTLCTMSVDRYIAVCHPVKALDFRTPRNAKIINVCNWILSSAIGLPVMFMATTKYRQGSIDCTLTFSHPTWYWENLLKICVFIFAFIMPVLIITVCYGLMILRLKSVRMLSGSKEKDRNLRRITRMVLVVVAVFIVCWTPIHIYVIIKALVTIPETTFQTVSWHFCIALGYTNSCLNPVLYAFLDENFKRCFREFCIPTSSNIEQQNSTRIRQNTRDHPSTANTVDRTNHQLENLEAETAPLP
Melanocortin receptor 4, sequence (P32245 whole entry, the tested form may be a part): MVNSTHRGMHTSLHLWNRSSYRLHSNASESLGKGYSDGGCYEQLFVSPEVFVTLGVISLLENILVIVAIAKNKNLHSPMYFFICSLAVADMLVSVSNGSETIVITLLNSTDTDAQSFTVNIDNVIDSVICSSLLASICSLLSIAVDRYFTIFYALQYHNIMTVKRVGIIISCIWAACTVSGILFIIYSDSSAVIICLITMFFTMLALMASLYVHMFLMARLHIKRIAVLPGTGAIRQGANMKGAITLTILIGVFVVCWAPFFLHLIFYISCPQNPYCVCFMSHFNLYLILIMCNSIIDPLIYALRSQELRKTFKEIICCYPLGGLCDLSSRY
5-hydroxytryptamine receptor 2A, sequence (P35363 whole entry): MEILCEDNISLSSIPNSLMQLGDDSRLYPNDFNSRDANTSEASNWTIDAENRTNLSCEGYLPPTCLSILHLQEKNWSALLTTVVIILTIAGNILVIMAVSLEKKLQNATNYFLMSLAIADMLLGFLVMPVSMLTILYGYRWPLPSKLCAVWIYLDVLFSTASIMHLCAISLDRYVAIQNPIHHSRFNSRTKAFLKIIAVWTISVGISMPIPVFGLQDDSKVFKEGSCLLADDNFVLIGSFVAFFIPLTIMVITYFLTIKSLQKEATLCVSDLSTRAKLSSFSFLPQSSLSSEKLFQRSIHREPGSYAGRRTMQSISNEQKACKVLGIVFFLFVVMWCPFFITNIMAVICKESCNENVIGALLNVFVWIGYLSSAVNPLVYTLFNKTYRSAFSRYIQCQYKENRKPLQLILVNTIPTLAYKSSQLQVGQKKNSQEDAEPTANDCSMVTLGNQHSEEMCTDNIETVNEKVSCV

Cc1ccc2nc(NC(=O)C3CCN(S(=O)(=O)c4ccc5c(c4)oc(=O)n5C)CC3)sc2c1
AC50 [1]: 11.1 µM (active)
AC50 [2]: 3.35 µM (active)
AC50 [3]: 54.7 µM (active)
AC50 [4]: 7.23 µM (active)
AC50 [5]: 29.1 µM (active)

O=C(NNC(=S)NC(=O)c1cccs1)c1ccc(NC(=O)c2ccccc2)cc1
IC50 [6]: 51.9 µM (inactive)
EC50 [7]: 0.479 µM (active)
EC50 (Streptococcus): 6.3 µM (active)

CN(CC(=O)Nc1ccc(F)c(F)c1F)C(=O)CCc1nc(O)c2c3c(sc2n1)CCCC3
IC50 [8]: 46.5 µM (active)
AC50 (Caspase-6): 18.6 µM (active)
IC50 (Prothrombin): 61.3 µM (active)
IC50 [9]: > 100 µM (inactive)

COc1cccc(CNC(=O)c2ccc3c(c2)N(C)CCS3)c1OC
EC50 (Kallikrein-7): > 69.5 µM (inactive)

Cc1oc(-c2ccc(Cl)cc2)nc1CN1CCCC(C(=O)NCc2ccco2)C1 (stereo not given)
AC50 [10]: 6.37 µM (active)
EC50 [11]: > 120 µM (not active)
EC50 [12]: > 120 µM (not active)
EC50 [13]: > 120 µM (not active)
AC50 [14]: 1.3 µM (active)

CCOc1ccc(Cn2c3ccc(OC)cc3c3nc4ccccc4nc32)cc1OC
IC50 [15]: 12.8 µM (active)
EC50 (Melanocortin receptor 4): > 89.2 µM (inactive)
IC50 [16]: 6.92 µM (active)

C=CCOc1ccc(/C=C/C(=O)Nc2ccc(C(=O)NC)cc2)cc1
IC50 [17]: 52.2 µM (inactive)

COc1ccccc1C(=O)NCCN1CCN(c2ccccc2)CC1
EC50 (Mu-type opioid receptor): 92.5 µM (inactive)
AC50 [18]: 3.86 µM (active)
EC50 [19]: 0.662 µM (active)

CC(=O)Nc1ccc(S(=O)(=O)N2CCCCC2c2cccnc2)cc1 (stereo not given)
EC50 [20]: 0.0233 µM (active)
EC50 [21]: 262 nM (active) and 107 nM (active)

Nc1nn(-c2cccc(F)n2)cc1-c1ccccc1
EC50 [22]: > 67.5 µM (inactive)

CCCOC(=O)c1c(-c2ccc(OC)cc2)oc2ccc(-c3ccc(OC)nc3)cc12
IC50 [23]: > 29.9 µM (inactive)
EC50 [24]: > 29.9 µM (inactive)
